Results published in ChEMBL document CHEMBL5137080, “Discovery of Novel 7-Hydroxy-5-oxo-4,5-dihydrothieno[3,2-b]pyridine-6-carboxamide Derivatives with Potent and Selective Antifungal Activity against Cryptococcus Species” (J Med Chem, 2022).
Values after ≈ are worked out from the molar mass of the structure shown.

Experiments:
[1] = system: Aspergillus fumigatus; experiment: Antifungal activity against Aspergillus fumigatus 7544 assessed as fungal growth inhibition incubated for 48 hrs by broth microdilution method; assay type: functional
[2] = system: Cryptococcus neoformans; experiment: Antifungal activity against Cryptococcus neoformans H99 assessed as fungal growth inhibition incubated for 72 hrs by broth microdilution method; assay type: functional
[3] = system: Candida albicans; experiment: Antifungal activity against Candida albicans SC5314 assessed as fungal growth inhibition incubated for 48 hrs by broth microdilution method; assay type: functional
[4] = Cytotoxicity against human HUVEC cells assessed as inhibition on cell growth incubated for 24 hrs by CCK-8 assay; assay type: toxicity, cell-based
[5] = Hemolytic activity in rabbit RBC at 64 ug/ml incubated for 1 hr by spectrophotometry; assay type: toxicity, cell-based, Oryctolagus cuniculus, Erythrocyte; conditions: red blood cells, at 64 µg/mL, read-out: Activity
[6] = Cytotoxicity against human Caco-2 cells assessed as cell viability at 64 ug/ml incubated for 24 hrs by CCK-8 assay; assay type: toxicity, cell-based; conditions: at 64 µg/mL, read-out: Activity
[7] = Cytotoxicity against human Caco-2 cells assessed as cell viability at 256 ug/ml incubated for 24 hrs by CCK-8 assay; assay type: toxicity, cell-based; conditions: at 256 µg/mL, read-out: Activity
[8] = Hemolytic activity in rabbit RBC at 16 ug/ml incubated for 1 hr by spectrophotometry; assay type: toxicity, cell-based, Oryctolagus cuniculus, Erythrocyte; conditions: red blood cells, at 16 µg/mL, read-out: Activity
[9] = Hemolytic activity in rabbit RBC at 32 ug/ml incubated for 1 hr by spectrophotometry; assay type: toxicity, cell-based, Oryctolagus cuniculus, Erythrocyte; conditions: red blood cells, at 32 µg/mL, read-out: Activity
[10] = Cytotoxicity against human HUVEC cells assessed as cell viability at 256 ug/ml incubated for 24 hrs by CCK-8 assay; assay type: toxicity, cell-based; conditions: at 256 µg/mL, read-out: Activity
[11] = Cytotoxicity against human HUVEC cells assessed as cell viability at 64 ug/ml incubated for 24 hrs by CCK-8 assay; assay type: toxicity, cell-based; conditions: at 64 µg/mL, read-out: Activity

Structure (SMILES)	MIC [1] [µg/mL]	MIC [2] [µg/mL]	MIC [3] [µg/mL]	IC50 at 24 h [4] [µg/mL]	also measured
O=C(NCc1ccc(F)cc1)c1c(O)c2sccc2n(Cc2ccccc2)c1=O	> 64	4 (≈ 9.79 µM)	> 64	–	–
O=C(NCC1CC1)c1c(O)c2sccc2n(Cc2ccccc2)c1=O	> 64	1 (≈ 2.82 µM)	> 64	–	–
O=C(NCCO)c1c(O)c2sccc2n(Cc2ccccc2)c1=O	32 (≈ 92.9 µM)	8 (≈ 23.2 µM)	> 64	64 (≈ 186 µM)	–
CC(C)CNC(=O)c1c(O)c2sccc2n(Cc2ccccc2)c1=O	> 64	16 (≈ 44.9 µM)	> 64	–	–
O=C(NCCc1ccccc1)c1c(O)c2sccc2n(Cc2ccccc2)c1=O	> 64	4 (≈ 9.89 µM)	> 64	–	–
CCCNC(=O)c1c(O)c2sccc2n(Cc2ccccc2)c1=O	> 64	2 (≈ 5.84 µM)	> 64	> 64	–
CC(C)NC(=O)c1c(O)c2sccc2n(Cc2ccccc2)c1=O	> 64	2 (≈ 5.84 µM)	> 64	> 64	–
O=C(NC1CCCCC1)c1c(O)c2sccc2n(Cc2ccccc2)c1=O	> 64	8 (≈ 20.9 µM)	> 64	> 64	–
O=C(NCc1ccccc1Cl)c1c(O)c2sccc2n(Cc2ccccc2)c1=O	> 64	2 (≈ 4.71 µM)	> 64	–	–
O=C(NCCCCO)c1c(O)c2sccc2n(Cc2ccccc2)c1=O	32 (≈ 85.9 µM)	2 (≈ 5.37 µM)	> 64	16 (≈ 43 µM)	–
CCC(C)NC(=O)c1c(O)c2sccc2n(Cc2ccccc2)c1=O (stereo not drawn)	64 (≈ 180 µM)	4 (≈ 11.2 µM)	> 64	–	–
COc1cccc(CNC(=O)c2c(O)c3sccc3n(Cc3ccccc3)c2=O)c1	> 64	2 (≈ 4.76 µM)	> 64	–	–
O=C(NCc1cc(F)cc(F)c1)c1c(O)c2sccc2n(Cc2ccccc2)c1=O	> 64	2 (≈ 4.69 µM)	> 64	–	–
C[C@@H]1[C@H](O)[C@@H](C)/C=C/C=C/C=C/C=C/C=C/C=C/C=C/[C@H](O[C@@H]2O[C@H](C)[C@@H](O)[C@H](N)[C@@H]2O)C[C@@H]2O[C@](O)(C[C@@H](O)C[C@@H](O)[C@H](O)CC[C@@H](O)C[C@@H](O)CC(=O)O[C@H]1C)C[C@H](O)[C@H]2C(=O)O [AMPHOTERICIN B]	2 (≈ 2.16 µM)	1 (≈ 1.08 µM)	0.125 (≈ 0.135 µM)	16 (≈ 17.3 µM)	hemolysis at 1 h, 64 ug/ml [5]: 100%; viability at 24 h, 64 ug/ml [6]: 64.8%; viability at 24 h, 256 ug/ml [7]: 28.7%; hemolysis at 1 h, 16 ug/ml [8]: 8.06%; hemolysis at 1 h, 32 ug/ml [9]: > 95%; viability at 24 h, 256 ug/ml [10]: 13.7%; viability at 24 h, 64 ug/ml [11]: 68.2%
CC(NC(=O)c1c(O)c2sccc2n(Cc2ccccc2)c1=O)c1ccccc1 (stereo not drawn)	> 64	4 (≈ 9.89 µM)	> 64	–	–
Cc1ccc(CNC(=O)c2c(O)c3sccc3n(Cc3ccccc3)c2=O)o1	> 64	2 (≈ 5.07 µM)	> 64	–	–
O=C(NCCc1cccs1)c1c(O)c2sccc2n(Cc2ccccc2)c1=O	> 64	2 (≈ 4.87 µM)	> 64	–	–
CC(NC(=O)c1c(O)c2sccc2n(Cc2ccccc2)c1=O)c1ccc(F)cc1 (stereo not drawn)	> 64	2 (≈ 4.73 µM)	> 64	–	–
CN(C)c1ccc(CNC(=O)c2c(O)c3sccc3n(Cc3ccccc3)c2=O)cc1	> 64	4 (≈ 9.23 µM)	> 64	–	–
O=C(NCc1ccccc1F)c1c(O)c2sccc2n(Cc2ccccc2)c1=O	> 64	2 (≈ 4.9 µM)	> 64	–	–
COCCNC(=O)c1c(O)c2sccc2n(Cc2ccccc2)c1=O	32 (≈ 89.3 µM)	2 (≈ 5.58 µM)	> 64	16 (≈ 44.6 µM)	–
CC1CCN(CCNC(=O)c2c(O)c3sccc3n(Cc3ccccc3)c2=O)CC1	32 (≈ 75.2 µM)	32 (≈ 75.2 µM)	32 (≈ 75.2 µM)	–	–
O=C(Nc1ccccc1)c1c(O)c2sccc2n(Cc2ccccc2)c1=O	> 64	> 64	> 64	–	–

Structure (SMILES)	MIC [1] [µg/mL]	MIC [2] [µg/mL]	MIC [3] [µg/mL]	IC50 at 24 h [4] [µg/mL]	also measured
O=C(NC1CCCC1)c1c(O)c2sccc2n(Cc2ccccc2)c1=O	> 64	4 (≈ 10.9 µM)	> 64	> 64	–
O=C(NCC1CCCO1)c1c(O)c2sccc2n(Cc2ccccc2)c1=O (stereo not drawn)	16 (≈ 41.6 µM)	4 (≈ 10.4 µM)	32 (≈ 83.2 µM)	–	–
Cc1ccccc1CNC(=O)c1c(O)c2sccc2n(Cc2ccccc2)c1=O	> 64	2 (≈ 4.94 µM)	> 64	–	–
COc1ccc(CNC(=O)c2c(O)c3sccc3n(Cc3ccccc3)c2=O)cc1	> 64	2 (≈ 4.76 µM)	> 64	–	–
O=C(NCc1cccc(Cl)c1)c1c(O)c2sccc2n(Cc2ccccc2)c1=O	> 64	2 (≈ 4.71 µM)	> 64	–	–
O=C(NCCc1c[nH]c2ccccc12)c1c(O)c2sccc2n(Cc2ccccc2)c1=O	> 64	8 (≈ 18 µM)	> 64	–	–
CCCCCCNC(=O)c1c(O)c2sccc2n(Cc2ccccc2)c1=O	> 64	0.5 (≈ 1.3 µM)	> 64	> 64	–
O=C(NCc1ccccn1)c1c(O)c2sccc2n(Cc2ccccc2)c1=O	16 (≈ 40.9 µM)	2 (≈ 5.11 µM)	> 64	–	–
O=C(NCCCO)c1c(O)c2sccc2n(Cc2ccccc2)c1=O	32 (≈ 89.3 µM)	4 (≈ 11.2 µM)	> 64	64 (≈ 179 µM)	–
O=C(NN1CCCCC1)c1c(O)c2sccc2n(Cc2ccccc2)c1=O	> 64	16 (≈ 41.7 µM)	> 64	> 64	–
O=C(NCc1ccc(Cl)cc1)c1c(O)c2sccc2n(Cc2ccccc2)c1=O	> 64	1 (≈ 2.35 µM)	> 64	–	–
CSc1ccc(CNC(=O)c2c(O)c3sccc3n(Cc3ccccc3)c2=O)cc1	> 64	2 (≈ 4.58 µM)	> 64	–	–
Cc1ccc(CNC(=O)c2c(O)c3sccc3n(Cc3ccccc3)c2=O)cc1C	> 64	2 (≈ 4.78 µM)	> 64	–	–
C=CCCNC(=O)c1c(O)c2sccc2n(Cc2ccccc2)c1=O	> 64	0.25 (≈ 0.705 µM)	> 64	> 64	–
CCOCCNC(=O)c1c(O)c2sccc2n(Cc2ccccc2)c1=O	16 (≈ 43 µM)	0.5 (≈ 1.34 µM)	> 64	8 (≈ 21.5 µM)	–
O=C(NCc1ccncc1)c1c(O)c2sccc2n(Cc2ccccc2)c1=O	8 (≈ 20.4 µM)	2 (≈ 5.11 µM)	64 (≈ 163 µM)	–	–
O=C(NCCN1CCOCC1)c1c(O)c2sccc2n(Cc2ccccc2)c1=O	64 (≈ 155 µM)	8 (≈ 19.3 µM)	32 (≈ 77.4 µM)	–	–
O=C(NCc1ccc(F)cc1F)c1c(O)c2sccc2n(Cc2ccccc2)c1=O	> 64	2 (≈ 4.69 µM)	> 64	–	–
CCCCCNC(=O)c1c(O)c2sccc2n(Cc2ccccc2)c1=O	> 64	0.5 (≈ 1.35 µM)	> 64	> 64	–
O=C(NCc1cccs1)c1c(O)c2sccc2n(Cc2ccccc2)c1=O	> 64	2 (≈ 5.04 µM)	> 64	–	–
C#CCNC(=O)c1c(O)c2sccc2n(Cc2ccccc2)c1=O	> 64	16 (≈ 47.3 µM)	> 64	> 64	–
O=C(NN1CCOCC1)c1c(O)c2sccc2n(Cc2ccccc2)c1=O	> 64	> 64	> 64	> 64	–
